Patent US20070161546A1, “Methods and compositions for treatment of cancer” (priority 2005, published 2007)

Assays:
[1] = tested on: human monocyte-derived macrophages (MDMs); conditions: p38 MAPK inhibitor added to Z-100; cited from earlier work
[2] = tested on: Ehrlich ascites tumor cell; conditions: mice, 14 days after inoculation with cancer cells
Excerpt: The injection is repeated over a period of several days. Fourteen days later after the initial inoculation with cancer cells, each of the treated mice are anesthetized.
The solid tumor growing in the abdominal section is carefully isolated from other organ tissues, cleaned using filter papers and weighed. For the test and the control group, the average weight of the cancerous tissue was tabulated and evaluated by the t-test.

Compound: C[S+]([O-])c1ccc(-c2nc(-c3ccncc3)c(-c3ccc(F)cc3)[nH]2)cc1 (centres unmarked) [SB 203580]
- effect on Z-100-induced effects (repression of HIV-1 replication) [1]: alleviated

Compound: O=P1(N(CCCl)CCCl)NCCCO1 (centres unmarked) [cyclophosphamide, Cyclophosphamide]
- anticancer effect (average weight of the cancerous tissue), agent alone [2]: anticancer effects of similar magnitude
